Source: PMC9354243, “The Role of Tryptophan in π Interactions in Proteins: An Experimental Approach” (Journal of the American Chemical Society, 2022)
Read-outs that look alike come from different tables or passages of the source.

Tests used:
LmrR labeled with 5MeW = LmrR labeled with 5MeW (Lactococcus lactis subsp. cremoris, UniProt A2RI36); assay: SPR binding of drugs to immobilized LmrR labeled with 5MeW; conditions: for Kd: Binding affinity, SPR, mean ± SD n = 3
Description: (§1) LmrR binds different drugs including Dau and RBF.[19],[20] To investigate the importance of π–π interactions for drug binding, the electron density in the π electron cloud of W96 was modulated by progressive fluorination of the W96 indole side chain. The binding affinities of LmrR for Dau and RBF decreased upon increasing degrees of fluorination of W96 (Table 2, Figure S3). […] Dau behaved less extreme, with the kd […] 6-fold (Table 2).
(§2) The thermodynamics of the LmrR–Dau interaction was recently reported to be mostly entropy driven.[21] To investigate this point in more detail the temperature dependence of the LmrR–Dau interaction was studied by surface plasmon resonance (SPR) experiments at 10 and 25 °C. […] The average ΔΔG from 6 LmrR variants is around 0.1 kJ/mol. These values imply that the temperature effects on the ΔGs are negligible, which would be in line with a low contribution of entropic factors to the Dau–LmrR interaction.
(§3) The SPR assays can also inform on the kinetics of the LmrR-drug interaction, but for the assays at 25 °C, the kon and koff rates could not be analyzed properly, because the rates were too fast at those conditions. The koff rates increase when the electron density of the π-electron cloud in W96 decreases, in support of a sizable contribution of the π–π stacking interaction to the drug binding affinity. […]
(§4) MALDI-TOF. A purified LmrR solution (~6 mg/ml) was diluted to ~0.5 mg/ml with 100 mM NH4HCO3, and incubated with 5 µg/ml of trypsin during 2 h at 37 °C. 1 µl of digested LmrR was spotted, dried and quickly washed with 1 µl MilliQ water twice. Subsequently, 1 µl of matrix solution (10 mg/ml α- cyano-4-hydroxycinnamate (LaserBio Labs) in 50 % acetonitrile/0.1 % (v/v) trifluoroacetic acid) was spotted on top of the washed sample. Spots were measured using a Voyager DE-PRO MALDI-TOF (time of flight) instrument (Applied Biosystems). The incorporation efficiency of Trp analog was calculated after measuring the peak areas of the peptide conta ining either Trp or Trp analog.
(§5) Binding assays - surface plasmon resonance (SPR). LmrR and mutants were immobilized on a CM5 sensor chip and binding of drugs was monitored using a BIACORE3000 system. The binding responses of Dau and RBF to LmrR were measured in triplicate at both 25 °C and 10 °C, in HBS-EP running buffer (10 mM HEPES, pH 7.4, 150 mM NaCl, 50 µM EDTA, and 0.005% surfactant P-20). The binding responses were corrected by subtracting the response measured in the control lane, to which a […]
(§6) This protein, 4-oxalocrotonate tautomerase mutant Ala33Asp15 was a gift of J.-Y. van der Meer. Steady state responses after injection of serial dilutions of Dau and RBF were used for the determination of the dissociation constant (K d) values, using the BIAevaluation v.4.1 (GE Healthcare ) and GraphPad Prism v5.00 software . The One site-Total equation from GraphPad Prism software was used for the calculation of Kd as follows:
(§7) Y=Bmax*X/(Kd+X) + NS*X + Background . Equilibrium response Y is obtained at ligand concentration X.
(§8) Bmax represents the maximum specific binding response to the same sensorchip. NS is the slope of nonspecific binding in Y units divided by X units. […]
(§9) without addition of ligand. Binding free energies, ΔGs, were derived from the dissociation constant K d according to […].
(§10) Where possible, rate constants were determined using the BIAevaluation v.4.1 (GE Healthcare ) software. k off values were determined by fitting a 1:1 (Langmuir ) binding model . Each koff value is the average of 3 determinations.

W-LmrR = W-LmrR (Lactococcus lactis subsp. cremoris, UniProt A2RI36); assay: SPR binding of drugs to immobilized wild type LmrR (W-LmrR); conditions: for Contribution of the π–π interactions to the total binding energy: extrapolation with 4,5,6,7tetraFW as baseline; for Kd: W (wild type) LmrR, SPR, mean ± SD n = 3
Description: as §1, §2, §3, §4, §5, §6, §7, §8, §9, §10

5FW-LmrR = 5FW-LmrR (Lactococcus lactis subsp. cremoris, UniProt A2RI36); assay: SPR binding of drugs to immobilized 5FW-LmrR; conditions: for Kd: Binding affinity, SPR, mean ± SD n = 3
Description: as §1, §2, §3, §4, §5, §6, §7, §8, §9, §10

5,6,7triFW-LmrR = 5,6,7triFW-LmrR (Lactococcus lactis subsp. cremoris, UniProt A2RI36); assay: SPR binding of drugs to immobilized 5,6,7triFW-LmrR; conditions: for Kd: Binding affinity, Kd, 5,6,7triFW LmrR, SPR, mean ± SD n = 3
Description: as §1, §2, §3, §4, §5, §6, §7, §8, §9, §10

5,6diFW-LmrR = 5,6diFW-LmrR (Lactococcus lactis subsp. cremoris, UniProt A2RI36); assay: SPR binding of drugs to immobilized 5,6diFW-LmrR; conditions: for Kd: Binding affinity, Kd, 5,6diFW LmrR, SPR, mean ± SD n = 3
Description: as §1, §2, §3, §4, §5, §6, §7, §8, §9, §10

4,5,6,7tetraFW-LmrR = 4,5,6,7tetraFW-LmrR (Lactococcus lactis subsp. cremoris, UniProt A2RI36); assay: biochemical; format: binding; conditions: for Fold decrease of LmrR binding affinity, W-LmrR to 4,5,6,7tetraFW-LmrR: equals enhancement of affinity by π–π stacking; for Kd: Binding affinity, Kd, 4,5,6,7tetraFW LmrR, SPR, mean ± SD n = 3
Description: LmrR binds different drugs including Dau and RBF.[19],[20] To investigate the importance of π–π interactions for drug binding, the electron density in the π electron cloud of W96 was modulated by progressive fluorination of the W96 indole side chain.
The thermodynamics of the LmrR–Dau interaction was recently reported to be mostly entropy driven.[21] To investigate this point in more detail the temperature dependence of the LmrR–Dau interaction was studied by surface plasmon resonance (SPR) experiments at 10 and 25 °C. […]
as §4, §5
This protein, 4-oxalocrotonate tautomerase mutant Ala33Asp15 was a gift of J.-Y. van der Meer. Steady state responses after injection

[1] = 5MeW LmrR, 25 °C, derived from Kd
[2] = 5FW LmrR, 25 °C, derived from Kd
[3] = 5,6,7triFW LmrR, 25 °C, derived from Kd
[4] = 5,6diFW LmrR, 25 °C, derived from Kd
[5] = 4,5,6,7tetraFW LmrR, 25 °C, derived from Kd

Chain of LmrR labeled with 5MeW (A2RI36 entry or part of it): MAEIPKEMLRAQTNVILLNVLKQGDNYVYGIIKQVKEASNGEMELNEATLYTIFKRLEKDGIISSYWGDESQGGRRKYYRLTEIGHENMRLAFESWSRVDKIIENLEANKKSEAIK
Chain of 5FW-LmrR (A2RI36 entry or part of it): as above
Chain of 5,6diFW-LmrR (A2RI36 entry or part of it): as above
Chain of 4,5,6,7tetraFW-LmrR (A2RI36 entry or part of it): as above
Chain of 5,6,7triFW-LmrR (A2RI36 entry or part of it): as above
Chain of W-LmrR (A2RI36 entry or part of it): as above

COc1cccc2c1C(=O)c1c(O)c3c(c(O)c1C2=O)C[C@@](O)(C(C)=O)C[C@@H]3O[C@H]1C[C@H](N)[C@H](O)[C@H](C)O1 [Dau, Daunomycin]
koff (LmrR labeled with 5MeW): 0.2 ± 0.04 s⁻¹ | ΔΔG, ΔG10 °C – ΔG25 °C (LmrR labeled with 5MeW; 5MeW LmrR): –1.1 kJ/mol | Free energy of ligand binding ΔG10 °C (LmrR labeled with 5MeW; 5MeW LmrR, 10 °C, derived from Kd): –37.8 kJ/mol | Free energy of ligand binding ΔG25 °C (LmrR labeled with 5MeW; [1]): –36.7 kJ/mol | Kd (LmrR labeled with 5MeW; 5MeW LmrR, 10 °C): 104 ± 5 nM | Kd (LmrR labeled with 5MeW; 5MeW LmrR, 25 °C): 370 ± 30 nM | koff (W-LmrR): 0.4 ± 0.07 s⁻¹ | Contribution of the π–π interactions as share of the total binding energy (W-LmrR; 25 °C): 13% | Contribution of the π–π interactions to the total binding energy (W-LmrR; 25 °C): -1.15 kcal/mol | Kd (W-LmrR; Binding affinity, Kd, 10 °C): 315 ± 40 nM | Kd (W-LmrR; Binding affinity, Kd, 25 °C): 450 ± 50 nM | ΔΔG, ΔG10 °C – ΔG25 °C (W-LmrR; W LmrR): 0.22 kcal/mol | Free energy of ligand binding ΔG10 °C (W-LmrR; W LmrR, 10 °C, derived from Kd): –35.2 kJ/mol | Free energy of ligand binding ΔG25 °C (W-LmrR; W LmrR, 25 °C, derived from Kd): –36.2 kJ/mol | koff (5FW-LmrR): 0.6 ± 0.001 s⁻¹ | ΔΔG, ΔG10 °C – ΔG25 °C (5FW-LmrR; 5FW LmrR): 0.22 kcal/mol | Free energy of ligand binding ΔG10 °C (5FW-LmrR; 5FW LmrR, 10 °C, derived from Kd): –35.5 kJ/mol | Free energy of ligand binding ΔG25 °C (5FW-LmrR; [2]): –36.4 kJ/mol | Kd (5FW-LmrR; 5FW LmrR, 10 °C): 280 ± 40 nM | Kd (5FW-LmrR; 5FW LmrR, 25 °C): 430 ± 80 nM | koff (5,6,7triFW-LmrR): 0.8 ± 0.1 s⁻¹ | ΔΔG, ΔG10 °C – ΔG25 °C (5,6,7triFW-LmrR; 5,6,7triFW LmrR): –0.4 kJ/mol | Free energy of ligand binding ΔG10 °C (5,6,7triFW-LmrR; 5,6,7triFW LmrR, 10 °C, derived from Kd): –33.7 kJ/mol | Free energy of ligand binding ΔG25 °C (5,6,7triFW-LmrR; [3]): –33.3 kJ/mol | Kd (5,6,7triFW-LmrR; 10 °C): 590 ± 60 nM | Kd (5,6,7triFW-LmrR; 25 °C): 1440 ± 100 nM | ΔΔG, ΔG10 °C – ΔG25 °C (5,6diFW-LmrR; 5,6diFW LmrR): 0.048 kcal/mol | Free energy of ligand binding ΔG10 °C (5,6diFW-LmrR; 5,6diFW LmrR, 10 °C, derived from Kd): –33.9 kJ/mol | Free energy of ligand binding ΔG25 °C (5,6diFW-LmrR; [4]): –34.1 kJ/mol | Kd (5,6diFW-LmrR; 10 °C): 560 ± 50 nM | Kd (5,6diFW-LmrR; 25 °C): 1050 ± 60 nM | koff (4,5,6,7tetraFW-LmrR): 1.5 ± 0.09 s⁻¹ | ΔΔG, ΔG10 °C – ΔG25 °C (4,5,6,7tetraFW-LmrR; 4,5,6,7tetraFW LmrR): 0.072 kcal/mol | Free energy of ligand binding ΔG10 °C (4,5,6,7tetraFW-LmrR; 4,5,6,7tetraFW LmrR, 10 °C, derived from Kd): –31.3 kJ/mol | Free energy of ligand binding ΔG25 °C (4,5,6,7tetraFW-LmrR; [5]): –31.6 kJ/mol | Fold decrease of LmrR binding affinity, W-LmrR to 4,5,6,7tetraFW-LmrR (4,5,6,7tetraFW-LmrR; 25 °C): 6 fold | Kd (4,5,6,7tetraFW-LmrR; 10 °C): 1680 ± 70 nM | Kd (4,5,6,7tetraFW-LmrR; 25 °C): 2880 ± 500 nM

Cc1cc2nc3c(=O)[nH]c(=O)nc-3n(C[C@H](O)[C@H](O)[C@H](O)CO)c2cc1C [RBF, riboflavin]
Free energy of ligand binding ΔG25 °C (LmrR labeled with 5MeW; [1]): –36.6 kJ/mol | Kd (LmrR labeled with 5MeW; 5MeW LmrR, 25 °C): 380 ± 8 nM | Contribution of the π–π interactions as share of the total binding energy (W-LmrR; 25 °C): 29% | Contribution of the π–π interactions to the total binding energy (W-LmrR; 25 °C): -2.51 kcal/mol | Kd (W-LmrR; 25 °C, read-out: Binding affinity, Kd): 460 ± 50 nM | Free energy of ligand binding ΔG25 °C (W-LmrR; W LmrR, 25 °C, derived from Kd): –36.2 kJ/mol | Free energy of ligand binding ΔG25 °C (5FW-LmrR; [2]): –34.3 kJ/mol | Kd (5FW-LmrR; 5FW LmrR, 25 °C): 970 ± 50 nM | Free energy of ligand binding ΔG25 °C (5,6,7triFW-LmrR; [3]): –29.0 kJ/mol | Kd (5,6,7triFW-LmrR; 25 °C): 8370 ± 200 nM | Free energy of ligand binding ΔG25 °C (5,6diFW-LmrR; [4]): –30.2 kJ/mol | Kd (5,6diFW-LmrR; 25 °C): 4990 ± 60 nM | Free energy of ligand binding ΔG25 °C (4,5,6,7tetraFW-LmrR; [5]): –25.7 kJ/mol | Fold decrease of LmrR binding affinity, W-LmrR to 4,5,6,7tetraFW-LmrR (4,5,6,7tetraFW-LmrR; 25 °C): 70 fold | Kd (4,5,6,7tetraFW-LmrR; 25 °C): 33400 ± 16000 nM
